These compounds were tested on SPI1 type III protein secretion system (SopE‘-’Bla secretion) (assay: Primary assay: Type III protein secretion of the chimeric SopE‘-’Bla polypeptide (nitrocefin hydrolysis)). Conditions: Salmonella enterica, read-out: SopE IC50(uM).
Format: cell-based
Description: Primary assay: Type III protein secretion of the chimeric SopE‘-’Bla polypeptide by Salmonella enterica. This procedure is a cell-based assay that measures the type III-dependent secretion by Salmonella enterica of a plasmid-encoded chimeric polypeptide whose synthesis can be regulated, and which is endowed with an enzymatic activity that can be monitored colorimetrically by hydrolysis of a substrate that is unable to penetrate into the bacterial cytoplasm within the time constraints of the reaction. Thus, the colorimetric reaction is not influenced by SopE‘-’Bla polypeptide in the bacterial cytoplasm. Instead, it effectively measures the amount of polypeptide that has been secreted from the S. enterica cytoplasm to the extracellular medium via type III system protein secretion.
The SopE‘-’Bla recombinant polypeptide consists of two functionally distinct domains spliced together. The N-terminus domain is encoded by a polynucleotide region specifying the signal for type III secretion of the SopE polypeptide of S. enterica, an effector of the SPI1 type III protein secretion system. The C-terminus domain of SopE‘-’Bla consists of a 263 amino acid peptide sequence that corresponds to the TEM-1 β-lactamase expressed by plasmid pBR322 but without its N-terminal signal sequence. The TEM-1 β-lactamase part of the SopE‘-’Bla chimeric polypeptide is used as a reporter enzyme. It is capable of hydrolyzing nitrocefin resulting in a product whose accumulation can be monitored by colorimetric detection. The secretion of the SopE‘—’Bla chimeric polypeptide from the cytoplasm to the extracellular medium is dependent on type III protein secretion.
For this procedure, cells grown under conditions known to favor a functional SPI1 secretion system are induced for expression of the SopE‘-’Bla protein and grown either in the presence or in the absence of putative inhibitors for determined time. Nitrocefin is then added to the various cultures and its hydrolysis are used for quantitation. An inhibitor of Type III protein secretion is generally a compound that reduces the signal of the enzymatic reaction by decreasing the amount of SopE‘-’Bla secreted into the extracellular medium.
`O=C(O)[C@H](CSCc1ccccc1)Nc1nc(Nc2ccc(C(F)(F)F)cc2)nc(-c2ccc(Cl)c(Cl)c2)n1` [Compound 13, (R)-3-Benzylsulfanyl-2-[4-(3,4-dichlorophenyl)-6-(4-trifluoromethylphenylamino)-[1,3,5]triazin-2-yl-amino]propionic acid] showed an IC50 of 1.25 µM.
For `O=C(O)[C@H](CSCc1ccccc1)Nc1nc(Nc2ccc(C(F)(F)F)cc2)nc(-c2ccc(Br)cc2)n1` [Compound 14, (R)-3-Benzylsulfanyl-2-[4-(4-bromophenyl)-6-(4-trifluoromethylphenylamino)-[1,3,5]triazin-2-yl-amino]propionic acid], the IC50 was 1.7 µM.
With `O=C(O)[C@H](CSCc1ccccc1)Nc1nc(Nc2ccc(C(F)(F)F)cc2)nc(-c2ccc(Cl)cc2)n1` [Compound 15, (R)-3-Benzylsulfanyl-2-[4-(4-chlorophenyl)-6-(4-trifluoromethylphenylamino)-[1,3,5]triazin-2-yl-amino]propionic acid] the IC50 was 1.9 µM.
In the case of `O=C(O)[C@H](CSCc1ccccc1)Nc1nc(Nc2ccc(C(F)(F)F)cc2)nc(-c2ccc(C(F)(F)F)cc2)n1` [Compound 16, (R)-3-Benzylsulfanyl-2-[4-(4-trifluoromethylphenyl)-6-(4-trifluoromethyl-phenylamino)[1,3,5]triazin-2-yl-amino]propionic acid], the IC50 is reported as 2 µM.
`O=C(O)[C@H](CSCc1ccccc1)Nc1nc(Nc2ccc(C(F)(F)F)cc2)nc(-c2ccccc2Oc2ccccc2)n1` [Compound 17, (R)-3-Benzylsulfanyl-2-[4-(2-phenoxyphenyl)-6-(4-trifluoromethylphenylamino)[1,3,5]triazin-2-yl-amino]propionic acid] showed an IC50 of 2.5 µM.
Work on `O=C(O)[C@H](CSCc1ccccc1)Nc1nc(Nc2ccc(C(F)(F)F)cc2)nc(-c2cccc3ccccc23)n1` [Compound 18, (R)-3-Benzylsulfanyl-2-[4-naphthalen-1-yl-6-(4-trifluoromethylphenylamino)-[1,3,5]triazin-2-yl-amino]propionic acid] yielded an IC50 of 2.5 µM.
Work on `O=C(O)[C@H](CSCc1ccccc1)Nc1nc(Nc2ccc(C(F)(F)F)cc2)nc(-c2ccc(OC(F)(F)F)cc2)n1` [Compound 19, (R)-3-Benzylsulfanyl-2-[4-(4-trifluoromethoxyphenyl)-6-(4-trifluoromethyl-phenylamino)[1,3,5]triazin-2-yl-amino]propionic acid] yielded an IC50 of 3.2 µM.
`O=C(O)[C@H](CSCc1ccccc1)Nc1nc(Nc2ccc(C(F)(F)F)cc2)nc(-c2cccc(C(F)(F)F)c2)n1` [Compound 21, (R)-3-Benzylsulfanyl-2-[4-(3-trifluoromethylphenyl)-6-(4-trifluoromethyl-phenylamino)[1,3,5]triazin-2-yl-amino]propionic acid] gave an IC50 of 4.1 µM.
With `CC(C)Oc1ccc(-c2nc(Nc3ccc(C(F)(F)F)cc3)nc(N[C@@H](CSCc3ccccc3)C(=O)O)n2)cc1` [Compound 22, (R)-3-Benzylsulfanyl-2-[4-(4-isopropoxyphenyl)-6-(4-trifluoromethyl-phenylamino)[1,3,5]triazin-2-yl-amino]propionic acid] the IC50 was 4.1 µM.
With `O=C(O)[C@H](CSCc1ccccc1)Nc1nc(Nc2ccc(C(F)(F)F)cc2)nc(-c2cccc(F)c2)n1` [Compound 23, (R)-3-Benzylsulfanyl-2-[4-(3-fluorophenyl)-6-(4-trifluoromethylphenylamino)-[1,3,5]triazin-2-yl-amino]propionic acid] the IC50 was 4.2 µM.
In the case of `O=C(O)[C@H](CSCc1ccccc1)Nc1nc(Nc2ccc(C(F)(F)F)cc2)nc(-c2ccccc2)n1` [Compound 24, (R)-3-Benzylsulfanyl-2-[4-phenyl-6-(4-trifluoromethylphenylamino)[1,3,5]triazin-2-yl-amino]propionic acid], the IC50 is reported as 4.4 µM.
Compound `O=C(O)[C@H](CSCc1ccccc1)Nc1nc(Nc2ccc(C(F)(F)F)cc2)nc(-c2ccc(F)cc2)n1` [Compound 25, (R)-3-Benzylsulfanyl-2-[4-(4-fluorophenyl)-6-(4-trifluoromethylphenylamino)-[1,3,5]triazin-2-yl-amino]propionic acid] has an IC50 of 4.7 µM.

Source: patent publication US20050250945A1, “Triazine compounds as inhibitors of bacterial type III protein secretion systems” (priority 2004, published 2005)
